Laboratory results taken from US20070280915A1, “Combination Therapies Employing A Composition Comprising A Hmg Coa Reductase Inhibitor And A Vitamin B6 Related Compound” (priority 2003, published 2007).

System: patients who underwent percutaneous coronary intervention (PCI)
Assay: Randomized double-blinded study of P5P vs placebo in high-risk percutaneous coronary intervention (PCI)
Type: in vivo
Text: Inclusion criteria required prior determination for non-urgent PCI of a single-vessel lesion(s) and identification of ≧1 of the following clinical characteristics determining high risk for procedural-related ischemic complications (Califf R M, Abdelmeguid A E, Kuntz R E, Popma J J, Davidson C J, Cohen E A, Kleiman N S, Mahaffey K W, Topol E J, Pepine C J, et al. Myonecrosis after revascularization procedures. J Am Coll Cardiol 1998; 31:241-251; The ESPRIT Investigators. Novel dosing regimen of eptifibatide in planned coronary stent implantation: a randomised, placebo-controlled trial. Lancet 2000; 356:2037-2044): presence of an acute coronary syndrome (chest pain within 48 hours of PCI), recent AMI (≦7 days), diminished epicardial blood flow, angiographic thrombus, ejection fraction ≦30%, or vein graft lesion. In addition to any general contraindication to the PCI procedure or standard concomitant therapies, major exclusion criteria were creatine kinase (CK-MB) elevation above the upper limit of normal immediately before PCI, electrocardiographic evidence of atrial fibrillation or left bundle branch block, or evidence of any clinically significant abnormal laboratory finding (transaminases, bilirubin, or alkaline phosphatase >1.5 times the upper limit of normal or serum creatinine >1.8 mg/dl). Patients with elevated troponin measurements were permitted in the study provided that the peak troponin value was reported >24 hours before scheduled PCI, with documentation of a decreasing value before revascularization. […] Compliance and reasons for discontinued treatments were recorded for all patients.
Study end points and definitions—The primary objective of the study was to evaluate the feasibility of treatment with P5P as a cardioprotective agent in high-risk elective PCI. The primary end point of infarct size was evaluated by the trapezoidal rule (Press W H, Teukolsky S A, Vetterling W T, Flannery B P. Numerical Recipes. Cambridge, UK: Cambridge University Press, 1994:127-133.) using serial CK-MB enzyme measures performed at baseline and every 6 hours for 24 hours beginning immediately before initiation of PCI. The occurrence of myocardial ischemia within 24 hours after PCI was assessed as a secondary end point using continuous 12-lead electrocardiographic monitoring (Northeast Monitoring, Boston, Mass.). Evidence of periprocedural ischemia was defined as ST-segment depression of >100 μV within a 60-minute period of PCI, lasting ≧1 minute and separated from other episodes by 1 minute. Area under the curve ST-segment deviation was measured from the onset of the first to the last contrast injection. All cardiac markers and ST-segment monitoring data were analyzed by core laboratories blinded to treatment assignment (University of Maryland School of Medicine, Baltimore, Md.; Duke Ischemia Monitoring Laboratory, Durham, N.C.). Additional prespecified secondary end points included the 30-day composite and individual event rates of death; nonfatal infarction; new or worsening heart failure, or recurrent ischemia in addition to net clinical safety, which was defined as the absence of major adverse ischemic events; Thrombolysis In Myocardial Infarction (TIMI) major bleeding; and liver function or coagulation test abnormalities. Acute myocardial infarction (AMI) was defined as CK-MB elevation ≧3 times the upper limit of normal (upper limit of normal 7 ng/ml) and/or troponin T levels […] the upper limit of normal (upper limit of normal 0.1 ng/ml). If previous troponin (or CKMB) values were above the upper limit of normal, values were required to be 50% of the baseline measurement in addition to ≧2 times (≧3 times for CK-MB) the upper limit of normal to meet the definition of AMI. Routine chemistries, complete blood count, and coagulation assays were performed at baseline, 7 days, and 30 days after randomization. […]

With `Cc1ncc(COP(=O)(O)O)c(C=O)c1O` [P5P, pyridoxal-5-phosphate] the “safety issues related to treatment” value (60 patients in safety analyses) was “No safety issues”, the “Area under the curve ST deviation” value (24 h continuous electrocardiographic ST-monitoring, median (interquartile range)) was 1349 (951-2,263), μV-min and the “Any post-PCI ischemia” value (24 h continuous electrocardiographic ST-monitoring, percent of patients) was 14.7-34%. The deaths (30 days) was “no deaths”, the “occurrence of 30-day nonfatal AMI” value (30 days, vs 10.0% with placebo, p=1.0) was 12.8% and the “30-day composite adverse event rate (death, nonfatal AMI, new and/or worsening heart failure, or recurrent ischemia)” value (30 days, vs 15.0% with placebo, p=1.0) was 17.9%. The “abnormalities of routine chemistries or coagulation studies” value (at 7 and 30 days, vs placebo) was “no apparent differences”, the “CK-MB max (mean)” value (mean per therapy subgroup, with or without adjunctive statin) was 0.73 ng/mL and the “Time to peak CK-MB” value (median (interquartile range)) was 11.0 (0-18.0), 36 h. For the same molecule, the “Area under the curve CK-MB” value (median (interquartile range), P5P 10 mg/kg oral before PCI, then 5 mg/kg twice daily) was 1.1 (0.5-2.4), 39 ng/ml, the “Change in troponin T” value (median (interquartile range), baseline to within 24 hours after PCI) was 0 (0 = 0.7), 36 ng/ml and the Periprocedural cardiac markers (median (interquartile range), enteric-coated P5P 10 mg/kg oral before PCI, then 5 mg/kg twice daily 14 days) was 18.6 (10.2-34.5),. The “maximum periprocedural CK-MB level” value (patients receiving P5P vs placebo) was “significantly lower”, the “need for blood product transfusion” value (vs 10.00% placebo, p=0.26) was 2.5% and the “occurrence of major bleeding” value (vs 10.5% placebo, p=0.27) was 2.8%. The “patients who discontinued drug therapy before completion of the prescribed 2 weeks” value (vs 25.0% placebo, p=0.77) was 30.8% and the “median periprocedural CK-MB area under the curve (periprocedural infarct size, primary end point)” value (vs 32.9 with placebo, p=0.038) was 18.6 ng/mL.
